Laboratory results from patent US12685777B2, “Compositions, systems, and methods for modulating a target gene” (The Board of Trustees of the Leland Stanford Junior …, priority 2022, dated 2026).
Entries after “also recorded” stand apart in the source; their conditions may differ.

Tests used:
[1] = biological target: T1, bromodomain 1 of BRD4 and BTB domain of BCL6 (Homo sapiens, UniProt O60885+P41182, C67R/C84N/C8Q); assay: TR-FRET assay of ternary complex formation; format: binding; settings: 1 hr at room temperature, 520 nm/490 nm ratio
T1 construct: contains amino acids 5-129 with three mutations, C8Q, C67R, C84N
Method: Reaction was incubated for 1 hr at room temperature, and subsequently the fluorescence at 520 nm and 490 nm was measured. The 520 nm/490 nm ratio is plotted respective to DMSO control. The two lower curves are performed by addition of Neg1 and Neg2 instead of JWZ-7-7. […] The structure of JWZ-7-7 is provided in FIG. 2 and the structures of Neg1 and Neg2 are provided below:
Each reaction contained 100 nM BRD4^BD1, 100 nM BCL6BTB-Avi-Biot, 20 nM Streptavidin-FITC (Thermo #SA1001), and 1:400 anti-6×His terbium antibody (PerkinElmer #61H12TLF) in 10 μL of buffer containing 20 mM HEPES, 150 mM NaCl, 0.1% BSA, 0.1% NP-40, and 1 mM TCEP in a 384-well plate. Protein was incubated with drug digitally dispensed (Tecan D300e) for 1 hour in the dark at room temperature before excitation at 337 nm and measurement of emission at 520 nm (FITC) and 490 nm (terbium) with a PHERAstar FS plate reader (BMG Labtech). The ratio of signal at 520 nm to 490 nm was calculated and normalized to DMSO-treated conditions, and plotted.

NCI-H1105 = assay: Dose response on viability of small cell lung cancer line, resazurin assay; format: cell-based; settings: NCI-H1105, 72 h treatment; read-out: IC50
Method: (§1) IC50 of JWZ-7-7, BI-3812, JQ1, and combinations were calculated based on a dose response curve on three small cell lung cancer lines (FIG. 5). The dose response curve on viability was performed in technical replicates and biological triplicate after treating cells for 72 hours across a broad range of concentrations via serial dilutions. Viable cells were measured after treatment via a resazurin assay. The signal for viable assays was normalized to the DMSO treated negative control. A four-parameter non-linear fit was performed to fit a curve to calculate the IC50 for each of the cell lines. The table below describes the calculated IC50 across JWZ-7-7, JQ1, BI-3812 and combination of JQ1 and BI-3812 after 72 h treatment in technical replicates and biological triplicates.

NCI-H2196 = assay: as above; format: cell-based; settings: Homo sapiens; NCI-H2196, 72 h treatment
Method: as §1

DMS-79 = assay: as above; format: cell-based; settings: Homo sapiens; DMS-79, 72 h treatment
Method: as §1

DLBCL cell lines = assay: Chemical rescue: competitive titration of JQ1 or Bl3812 against the TCIP; format: cell-based; settings: titrated against constant JWZ-7-7 / TCIP1
[2] = system: MYC, FOXO3, p21, BCL6, BRD4 protein levels in KARPAS422 and SUDHL5; assay: Western blots of target proteins in DLBCL cells; format: cell-based, human; settings: titrated against constant 10 nM TCIP1, 8 hours
Method: Cells were plated at 1 M/mL and treated with drug at indicated timepoints and doses. 2 M Cells were harvested on ice in RIPA buffer (50 mM Tris-HCl pH 8, 150 mM NaCl, 1% NP-40, 0.1% DOC, 1% SDS, protease inhibitor cocktail (homemade), 1 mM DTT) and 1:200 benzonase (Sigma #E1014) was added and incubated for 20 minutes. After 10 minute centrifugation at 14,000 g and 4° C., the supernatant was collected and protein concentration was measured by Bradford.
Because a high percentage of the TCIP1-treated cells contain fragmented DNA by TUNEL assay at 24 hours (FIG. 31, Panel E), many of the “reduced genes” could reflect DNA fragmentation as part of the apoptotic process and digestion to mononucleosomes. Among the group of genes whose expression was most reduced were MYC and its targets (FIGS. 33B, 36C). The top 100 most TCIP1-reduced genes were examined using ChIP-seq data of human transcription factors in blood cancer cell lines, and found the promoters of TCIP1-inhibited genes highly enriched for MYC binding in multiple datasets (FIG. 33, Panel C). This is significant since many DLBCLs are considered to be MYC-dependent.
Signaling via NF-kB is known to be repressed by BCL6.

CNC(=O)COc1cc2cc(Nc3nc(N4CCC(C(=O)NCCCN5CCN(CCCNC(=O)C[C@@H]6N=C(c7ccc(Cl)cc7)c7c(sc(C)c7C)-n7c(C)nnc76)CC5)CC4)ncc3Cl)cc(OC)c2n(C)c1=O [JWZ-7-14, (S)-1-(5-chloro-4-((8-methoxy-1-methyl-3-(2-(methylamino)-2-oxoethoxy)-2-oxo-1,2-dihydroquinolin-6-yl)amino)pyrimidin-2-yl)-N-(3-(4-(3-(2-(4-(4-chlorophenyl)-2,3,9-trimethyl-6H-thieno[3,2-f][1,2,4]triazolo[4,3-a][1,4]diazepin-6-yl)acetamido)propyl)piperazin-1-yl)propyl)piperidine-4-carboxamide]
Ternary complex formation (TR-FRET) [1]: showed ternary complex formation

CNC(=O)COc1cc2cc(Nc3nc(N4CCC(C(=O)NCCCCCCCCCCNC(=O)C[C@@H]5N=C(c6ccc(Cl)cc6)c6c(sc(C)c6C)-n6c(C)nnc65)CC4)ncc3Cl)cc(OC)c2n(C)c1=O [JWZ-7-20, (S)-1-(5-chloro-4-((8-methoxy-1-methyl-3-(2-(methylamino)-2-oxoethoxy)-2-oxo-1,2-dihydroquinolin-6-yl)amino)pyrimidin-2-yl)-N-(10-(2-(4-(4-chlorophenyl)-2,3,9-trimethyl-6H-thieno[3,2-f][1,2,4]triazolo[4,3-a][1,4]diazepin-6-yl)acetamido)decyl)piperidine-4-carboxamide]
Ternary complex formation (TR-FRET) [1]: showed ternary complex formation

CNC(=O)COc1cc2cc(Nc3nc(N4CCC(C(=O)NCCCOCCCNC(=O)C[C@@H]5N=C(c6ccc(Cl)cc6)c6c(sc(C)c6C)-n6c(C)nnc65)CC4)ncc3Cl)cc(OC)c2n(C)c1=O [JWZ-7-97, (S)-1-(5-chloro-4-((8-methoxy-1-methyl-3-(2-(methylamino)-2-oxoethoxy)-2-oxo-1,2-dihydroquinolin-6-yl)amino)pyrimidin-2-yl)-N-(3-(3-(2-(4-(4-chlorophenyl)-2,3,9-trimethyl-6H-thieno[3,2-f][1,2,4]triazolo[4,3-a][1,4]diazepin-6-yl)acetamido)propoxy)propyl)piperidine-4-carboxamide]
Ternary complex formation (TR-FRET) [1]: showed ternary complex formation

CNC(=O)COc1cc2cc(Nc3nc(N4CCC(C(=O)N(C)C)CC4)ncc3Cl)cc(OC)c2n(C)c1=O [BI-3812]
IC50 (NCI-H1105): 4.3 µM
IC50 (NCI-H2196): 3.5 µM
IC50 (DMS-79): 6.1 µM

CNC(=O)COc1cc2cc(Nc3nc(N4CCC(C(=O)NCCCCCCNC(=O)C[C@@H]5N=C(c6ccc(Cl)cc6)c6c(sc(C)c6C)-n6c(C)nnc65)CC4)ncc3Cl)cc(OC)c2n(C)c1=O [JWZ-7-6, (S)-1-(5-chloro-4-((8-methoxy-1-methyl-3-(2-(methylamino)-2-oxoethoxy)-2-oxo-1,2-dihydroquinolin-6-yl)amino)pyrimidin-2-yl)-N-(6-(2-(4-(4-chlorophenyl)-2,3,9-trimethyl-6H-thieno[3,2-f][1,2,4]triazolo[4,3-a][1,4]diazepin-6-yl)acetamido)hexyl)piperidine-4-carboxamide]
Ternary complex formation (TR-FRET) [1]: showed ternary complex formation

CNC(=O)COc1cc2cc(Nc3nc(N4CCC(C(=O)NCCCCCCCCCNC(=O)C[C@@H]5N=C(c6ccc(Cl)cc6)c6c(sc(C)c6C)-n6c(C)nnc65)CC4)ncc3Cl)cc(OC)c2n(C)c1=O [JWZ-7-15, (S)-1-(5-chloro-4-((8-methoxy-1-methyl-3-(2-(methylamino)-2-oxoethoxy)-2-oxo-1,2-dihydroquinolin-6-yl)amino)pyrimidin-2-yl)-N-(9-(2-(4-(4-chlorophenyl)-2,3,9-trimethyl-6H-thieno[3,2-f][1,2,4]triazolo[4,3-a][1,4]diazepin-6-yl)acetamido)nonyl)piperidine-4-carboxamide]
Ternary complex formation (TR-FRET) [1]: showed ternary complex formation

CNC(=O)COc1cc2cc(Nc3nc(N4CCC(C(=O)NCCN5CCN(CCNC(=O)C[C@@H]6N=C(c7ccc(Cl)cc7)c7c(sc(C)c7C)-n7c(C)nnc76)CC5)CC4)ncc3Cl)cc(OC)c2n(C)c1=O [JWZ-7-13, (S)-1-(5-chloro-4-((8-methoxy-1-methyl-3-(2-(methylamino)-2-oxoethoxy)-2-oxo-1,2-dihydroquinolin-6-yl)amino)pyrimidin-2-yl)-N-(2-(4-(2-(2-(4-(4-chlorophenyl)-2,3,9-trimethyl-6H-thieno[3,2-f][1,2,4]triazolo[4,3-a][1,4]diazepin-6-yl)acetamido)ethyl)piperazin-1-yl)ethyl)piperidine-4-carboxamide]
Ternary complex formation (TR-FRET) [1]: showed ternary complex formation

CNC(=O)COc1cc2cc(Nc3nc(N4CCN(CCCCCCCCNC(=O)C[C@@H]5N=C(c6ccc(Cl)cc6)c6c(sc(C)c6C)-n6c(C)nnc65)CC4)ncc3Cl)cc(OC)c2n(C)c1=O [JWZ-7-23, (S)-2-((6-((5-chloro-2-(4-(8-(2-(4-(4-chlorophenyl)-2,3,9-trimethyl-6H-thieno[3,2-f][1,2,4]triazolo[4,3-a][1,4]diazepin-6-yl)acetamido)octyl)piperazin-1-yl)pyrimidin-4-yl)amino)-8-methoxy-1-methyl-2-oxo-1,2-dihydroquinolin-3-yl)oxy)-N-methylacetamide]
Ternary complex formation (TR-FRET) [1]: showed ternary complex formation

CNC(=O)COc1cc2cc(Nc3nc(N4CCC(C(=O)N(C)C)CC4)ncc3Cl)cc(OC)c2n(C)c1=O [Bl3812]
Rescue of TCIP-induced cell death (DLBCL cell lines): rescue cell death; also recorded: prevented death by TCIP1
Reversal of TCIP1-induced protein changes [2]: reversed p21 upregulation, FOXO3 upregulation, and MYC downregulation

CNC(=O)COc1cc2cc(Nc3nc(N4CCN(CCCCCCCCCCCNC(=O)C[C@@H]5N=C(c6ccc(Cl)cc6)c6c(sc(C)c6C)-n6c(C)nnc65)CC4)ncc3Cl)cc(OC)c2n(C)c1=O [JWZ-7-22, (S)-2-((6-((5-chloro-2-(4-(11-(2-(4-(4-chlorophenyl)-2,3,9-trimethyl-6H-thieno[3,2-f][1,2,4]triazolo[4,3-a][1,4]diazepin-6-yl)acetamido)undecyl)piperazin-1-yl)pyrimidin-4-yl)amino)-8-methoxy-1-methyl-2-oxo-1,2-dihydroquinolin-3-yl)oxy)-N-methylacetamide]
Ternary complex formation (TR-FRET) [1]: showed ternary complex formation

CNC(=O)COc1cc2cc(Nc3nc(N4CCC(C(=O)NCCCN(C)CCCNC(=O)C[C@@H]5N=C(c6ccc(Cl)cc6)c6c(sc(C)c6C)-n6c(C)nnc65)CC4)ncc3Cl)cc(OC)c2n(C)c1=O [JWZ-7-100, (S)-1-(5-chloro-4-((8-methoxy-1-methyl-3-(2-(methylamino)-2-oxoethoxy)-2-oxo-1,2-dihydroquinolin-6-yl)amino)pyrimidin-2-yl)-N-(3-((3-(2-(4-(4-chlorophenyl)-2,3,9-trimethyl-6H-thieno[3,2-f][1,2,4]triazolo[4,3-a][1,4]diazepin-6-yl)acetamido)propyl)(methyl)amino)propyl)piperidine-4-carboxamide]
Ternary complex formation (TR-FRET) [1]: showed ternary complex formation

CNC(=O)COc1cc2cc(Nc3nc(N4CCC(C(=O)N5CCC6(CC5)CN(CCNC(=O)C[C@@H]5N=C(c7ccc(Cl)cc7)c7c(sc(C)c7C)-n7c(C)nnc75)C6)CC4)ncc3Cl)cc(OC)c2n(C)c1=O [JWZ-7-98, (S)-2-((6-((5-chloro-2-(4-(2-(2-(2-(4-(4-chlorophenyl)-2,3,9-trimethyl-6H-thieno[3,2-f][1,2,4]triazolo[4,3-a][1,4]diazepin-6-yl)acetamido)ethyl)-2,7-diazaspiro[3.5]nonane-7-carbonyl)piperidin-1-yl)pyrimidin-4-yl)amino)-8-methoxy-1-methyl-2-oxo-1,2-dihydroquinolin-3-yl)oxy)-N-methylacetamide]
Ternary complex formation (TR-FRET) [1]: showed ternary complex formation
